Experimental data from ChEMBL document CHEMBL3352739, “Comparative in vivo evaluation of polyalkoxy substituted 4H-chromenes and oxa-podophyllotoxins as microtubule destabilizing agents in the phenotypic sea urchin embryo assay” (2014).

Key:
T47D = assay: Growth inhibition of human T47D cells after 48 hrs by sulforhodamine B assay; format: functional
ZR-75-1 = assay: Growth inhibition of human ZR-75-1 cells after 48 hrs by sulforhodamine B assay; format: functional; settings: ZR-75-1, 48 h
Paracentrotus lividus [1] = assay: Antimitotic microtubule destabilizing activity in Paracentrotus lividus L embryos assessed as induction of embryo spinning
Paracentrotus lividus [2] = assay: Antimitotic microtubule destabilizing activity in Paracentrotus lividus L embryos assessed as induction of cleavage arrest
[3] = Growth inhibition of human H1299 cells after 48 hrs by sulforhodamine B assay; format: functional; settings: NCI-H1299, 48 h
Paracentrotus lividus [4] = assay: Antimitotic microtubule destabilizing activity in Paracentrotus lividus L embryos assessed as induction of cleavage alteration
CAKI-1 = assay: Growth inhibition of human CAKI-1 cells after 48 hrs by sulforhodamine B assay; format: functional; settings: CAKI-1, 48 h
SN12C = assay: Growth inhibition of human SN12C cells after 48 hrs by sulforhodamine B assay; format: functional
[5] = Growth inhibition of human OVCAR5 cells after 48 hrs by sulforhodamine B assay; format: functional; settings: OVCAR-5, 48 h
[6] = Growth inhibition of human SF295 cells after 48 hrs by sulforhodamine B assay; format: functional; settings: SF-295, 48 h
[7] = Growth inhibition of human UACC62 cells after 48 hrs by sulforhodamine B assay; format: functional; settings: UACC-62, 48 h
786-0 = assay: Growth inhibition of human 786-0 cells after 48 hrs by sulforhodamine B assay; format: functional; settings: 786-0, 48 h
[8] = Growth inhibition of human LOXIMVI cells after 48 hrs by sulforhodamine B assay; format: functional; settings: LOX IMVI
[9] = Growth inhibition of human HCT116 cells after 48 hrs by sulforhodamine B assay; format: functional; settings: HCT-116, 48 h
NCI-H460 = assay: Growth inhibition of human NCI-H460 cells after 48 hrs by sulforhodamine B assay; format: functional; settings: NCI-H460, 48 h
SNB-19 = assay: Growth inhibition of human SNB19 cells after 48 hrs by sulforhodamine B assay; format: functional; settings: SNB-19, 48 h
HOP-62 = assay: Growth inhibition of human HOP62 cells after 48 hrs by sulforhodamine B assay; format: functional; settings: HOP-62, 48 h
[10] = Growth inhibition of human HOP92 cells after 48 hrs by sulforhodamine B assay; format: functional; settings: HOP-92, 48 h
[11] = Growth inhibition of human Hs 578T cells after 48 hrs by sulforhodamine B assay; format: functional
K562 = assay: Growth inhibition of human K562 cells after 48 hrs by sulforhodamine B assay; format: functional; settings: K562, 48 h
SK-OV-3 = assay: Growth inhibition of human SKOV3 cells after 48 hrs by sulforhodamine B assay; format: functional; settings: SK-OV-3, 48 h
A549 = assay: Growth inhibition of human A549/ATCC cells after 48 hrs by sulforhodamine B assay; format: functional; settings: A549, 48 h
HT-29 = assay: Growth inhibition of human HT-29 cells after 48 hrs by sulforhodamine B assay; format: functional; settings: HT-29, 48 h
SNB-75 = assay: Growth inhibition of human SNB75 cells after 48 hrs by sulforhodamine B assay; format: functional; settings: SNB-75, 48 h
IGROV-1 = assay: Growth inhibition of human IGROV1 cells after 48 hrs by sulforhodamine B assay; format: functional; settings: IGROV-1, 48 h
[12] = Growth inhibition of human OVCAR4 cells after 48 hrs by sulforhodamine B assay; format: functional; settings: OVCAR-4, 48 h
[13] = Growth inhibition of human RPMI8226 cells after 48 hrs by sulforhodamine B assay; format: functional; settings: RPMI-8226, 48 h
NCI-H522 = assay: Growth inhibition of human NCI-H522 cells after 48 hrs by sulforhodamine B assay; format: functional; settings: NCI-H522, 48 h
[14] = Growth inhibition of human HCC2998 cells after 48 hrs by sulforhodamine B assay; format: functional; settings: HCC 2998, 48 h
NCI-H322M = assay: Growth inhibition of human NCI-H322M cells after 48 hrs by sulforhodamine B assay; format: functional
ACHN = assay: Growth inhibition of human ACHN cells after 48 hrs by sulforhodamine B assay; format: functional
HL-60(TB) = assay: Growth inhibition of human HL-60(TB) cells after 48 hrs by sulforhodamine B assay; format: functional; settings: HL-60, 48 h
TK-10 = assay: Growth inhibition of human TK10 cells after 48 hrs by sulforhodamine B assay; format: functional; settings: TK-10, 48 h
[15] = Growth inhibition of human MOLT4 cells after 48 hrs by sulforhodamine B assay; format: functional; settings: MOLT-4, 48 h
A498 = assay: Growth inhibition of human A498 cells after 48 hrs by sulforhodamine B assay; format: functional; settings: A498, 48 h
MDA-MB-231 = assay: Growth inhibition of human MDA-MB-231 cells after 48 hrs by sulforhodamine B assay; format: functional; settings: MDA-MB-231, 48 h
CCRF-CEM = assay: Growth inhibition of human CCRF-CEM cells after 48 hrs by sulforhodamine B assay; format: functional
[16] = Growth inhibition of human SF539 cells after 48 hrs by sulforhodamine B assay; format: functional; settings: SF-539, 48 h
[17] = Growth inhibition of human EKVX cells after 48 hrs by sulforhodamine B assay; format: functional
DU-145 = assay: Growth inhibition of human DU145 cells after 48 hrs by sulforhodamine B assay; format: functional; settings: DU-145, 48 h
M14 = assay: Growth inhibition of human M14 cells after 48 hrs by sulforhodamine B assay; format: functional; settings: M14, 48 h
[18] = Growth inhibition of human BT549 cells after 48 hrs by sulforhodamine B assay; format: functional; settings: BT-549, 48 h
[19] = Growth inhibition of human RXF393 cells after 48 hrs by sulforhodamine B assay; format: functional; settings: RXF 393, 48 h
SR = assay: Growth inhibition of human SR cells after 48 hrs by sulforhodamine B assay; format: functional
[20] = Growth inhibition of human OVCAR3 cells after 48 hrs by sulforhodamine B assay; format: functional; settings: OVCAR-3, 48 h
[21] = Growth inhibition of human HCT15 cells after 48 hrs by sulforhodamine B assay; format: functional; settings: HCT-15, 48 h
NCI-H226 = assay: Growth inhibition of human NCI-H226 cells after 48 hrs by sulforhodamine B assay; format: functional; settings: NCI-H226, 48 h
SK-MEL-28 = assay: Growth inhibition of human SK-MEL-28 cells after 48 hrs by sulforhodamine B assay; format: functional; settings: SK-MEL-28, 48 h
SF-268 = assay: Growth inhibition of human SF268 cells after 48 hrs by sulforhodamine B assay; format: functional; settings: SF-268, 48 h
NCI-H23 = assay: Growth inhibition of human NCI-H23 cells after 48 hrs by sulforhodamine B assay; format: functional; settings: NCI-H23, 48 h
[22] = Growth inhibition of human PC3 cells after 48 hrs by sulforhodamine B assay; format: functional; settings: PC-3, 48 h
KM12 = assay: Growth inhibition of human KM12 cells after 48 hrs by sulforhodamine B assay; format: functional; settings: KM12, 48 h
SW-620 = assay: Growth inhibition of human SW620 cells after 48 hrs by sulforhodamine B assay; format: functional; settings: SW-620, 48 h
[23] = Growth inhibition of human OVCAR8 cells after 48 hrs by sulforhodamine B assay; format: functional; settings: OVCAR-8, 48 h
MDA-MB-435 = assay: Growth inhibition of human MDA-MB-435 cells after 48 hrs by sulforhodamine B assay; format: functional; settings: MDA-MB-435, 48 h
[24] = Cytotoxicity against human NCI60 cells; format: functional
SK-MEL-2 = assay: Growth inhibition of human SK-MEL-2 cells after 48 hrs by sulforhodamine B assay; format: functional; settings: SK-MEL-2, 48 h
U-251 = assay: Growth inhibition of human U251 cells after 48 hrs by sulforhodamine B assay; format: functional; settings: U-251, 48 h
SK-MEL-5 = assay: Growth inhibition of human SK-MEL-5 cells after 48 hrs by sulforhodamine B assay; format: functional; settings: SK-MEL-5, 48 h
[25] = Growth inhibition of human UO31 cells after 48 hrs by sulforhodamine B assay; format: functional; settings: UO-31, 48 h
MCF7 = assay: Growth inhibition of human MCF7 cells after 48 hrs by sulforhodamine B assay; format: functional; settings: MCF7, 48 h
MDA-MB-468 = assay: Growth inhibition of human MDA-MB-468 cells after 48 hrs by sulforhodamine B assay; format: functional; settings: MDA-MB-468, 48 h
[26] = Growth inhibition of human NCI-ADR-RES cells after 48 hrs by sulforhodamine B assay; format: functional
[27] = Growth inhibition of human COLO205 cells after 48 hrs by sulforhodamine B assay; format: functional; settings: COLO 205, 48 h

COc1cc(OC)cc(C2C(C#N)=C(N)Oc3cc(OC)ccc32)c1 (configuration not stated)
GI50 (T47D): 14 nM | GI50 (ZR-75-1): 9 nM | EC (Paracentrotus lividus [1]): 0.02 µM | EC (Paracentrotus lividus [2]): 0.005 µM | GI50 [3]: 32 nM | EC (Paracentrotus lividus [4]): 0.0005 µM

COc1cc(C2C(C#N)=C(N)Oc3cc(O)ccc32)cc(OC)c1OC (configuration not stated)
GI50 (CAKI-1): 885 nM | GI50 (SN12C): 790 nM | GI50 [5]: 4520 nM | EC (Paracentrotus lividus [1]): > 4 µM | GI50 [6]: 323 nM | GI50 [7]: 358 nM | GI50 (786-0): 605 nM | GI50 [8]: 523 nM | GI50 [9]: 453 nM | GI50 (NCI-H460): 374 nM | GI50 (SNB-19): 811 nM | GI50 (HOP-62): 796 nM | GI50 [10]: 301 nM | GI50 [11]: 463 nM | GI50 (K562): 460 nM | GI50 (SK-OV-3): 560 nM | GI50 (A549): 638 nM | GI50 (HT-29): 392 nM | EC (Paracentrotus lividus [2]): > 4 µM | GI50 (SNB-75): 271 nM | GI50 (IGROV-1): 2840 nM | GI50 [12]: 3490 nM | GI50 [13]: 691 nM | GI50 (NCI-H522): 255 nM | GI50 [14]: 975 nM | GI50 (NCI-H322M): 783 nM | GI50 (ACHN): 922 nM | GI50 (HL-60(TB)): 327 nM | GI50 (TK-10): 9830 nM | GI50 [15]: 652 nM | GI50 (A498): 161 nM | GI50 (MDA-MB-231): 927 nM | GI50 (CCRF-CEM): 375 nM | GI50 [16]: 347 nM | GI50 [17]: 6490 nM | GI50 (DU-145): 637 nM | GI50 (M14): 375 nM | GI50 [18]: 386 nM | GI50 [19]: 287 nM | GI50 (SR): 371 nM | GI50 [20]: 338 nM | GI50 [21]: 513 nM | GI50 (NCI-H226): 31200 nM | GI50 (SK-MEL-28): 934 nM | GI50 (SF-268): 14500 nM | GI50 (NCI-H23): 813 nM | GI50 [22]: 462 nM | GI50 (KM12): 451 nM | GI50 (SW-620): 347 nM | GI50 [23]: 836 nM | GI50 (MDA-MB-435): 136 nM | GI50 [24]: 692 nM | GI50 (SK-MEL-2): 539 nM | GI50 (U-251): 349 nM | GI50 (SK-MEL-5): 305 nM | GI50 [25]: 2800 nM | EC (Paracentrotus lividus [4]): 4 µM | GI50 (MCF7): 324 nM | GI50 (MDA-MB-468): 250 nM | GI50 [26]: 2320 nM | GI50 [27]: 852 nM
